Converted amounts (≈) assume the structure as drawn. Where two headings read alike, the source gives them in different places.
Tests used:
octopine dehydrogenase [1] = conditions: known substrate specificity; cited from earlier work
[2] = tested on: A. tumefaciens (strain C-58); assay: Growth of A. tumefaciens (turbidity A650, doubling time) with compound as source of carbon and nitrogen; assay type: cell-based; conditions: for Doubling Time: 0.0045 g/ml in control medium; for utilization as a source of carbon and nitrogen: preinduced and uninduced bacteria
Procedure: The minimal medium for bacterial growth was the mineral salt mixture described by Petit and Tempe, hereinbefore cited to which glucose was aded to make the final concentration 0.005 g/ml. The control medium was the mineral salt mixture from which the ammonium sulfate was omitted. In order to test whether they would support bacterial growth either nopaline, isonopaline, or the pyrrolidonecarboxylic acid derivative of nopaline or pyronopaline were added separately to the control medium to make the final concentration 0.0045 g/ml.
A single colony from a plate on minimal medium was adapted to liquid medium that contained nopaline. When visibly turbid, the nopaline liquid culture was innoculated (1% innoculum) into minimal liquid medium and into nopaline liquid medium. When turbid, these two cultures were used as inoculum to test the nopaline, isonopaline and pyronopaline in liquid culture media (20 ml in 125 ml flasks). After innoculation (1%), cultures were agitated on a rotary shaker at 1 cycle per second, and growth was monitored by measurement of the turbidity in a spectrophotometer. The turbidity (A650) readings were plotted on log paper and the doubling time was determined from the logarithmic portion of the growth curve (Table II).
Table II contains the results of experiments to test the ability of A. tumefaciens (strain C-58) to utilize the isomers and derivatives of nopaline as a source of carbon and nitrogen. […] The results are the same for both preinduced and uninduced bacteria. As expected the doubling time in minimal medium is greater than that in either nopaline or pyronopaline, since metabolism by the organism is more complex in the […] medium.

[3] = Reverse reaction (stability) of the pyrrolidonecarboxylic acid derivative of nopaline at 100° C.; assay type: physicochemical; conditions: 100° C. in NaOH, Na2CO3 (both at 0.1M), or HCl (3M)
[4] = Stability in bacteria-free tumor extract; assay type: physicochemical; conditions: pH 5.3, 10 days, room temperature
Solubility in H2O = assay type: physicochemical; conditions: water, 22° C.
octopine dehydrogenase [5] = assay: Oxidation catalyzed by octopine dehydrogenase; assay type: biochemical, scallops (Pecten maximus); conditions: nopaline / isonopaline as substrate
[6] = Conversion (cyclization) of nopaline / isonopaline to the pyro-derivatives; rate of formation; assay type: physicochemical; conditions: for cyclization: above pH 5.5; for reaction rate constant: conversion to pyro-derivative; for first order rate constant, formation of pyrrolidonecarboxylic acid derivative: pH 3.2, 60° C.; for time to completion of conversion to the pyrrolidonecarboxylic acid derivative: pH 3.2, 120° C. (autoclave)

For C[C@H](N[C@@H](CCCNC(=N)N)C(=O)O)C(=O)O [L-allooctopine], the “oxidation catalyzed by octopine dehydrogenase” value (from here on “oxidation catalyzed”) (octopine dehydrogenase [1]) is listed as “not of L-allooctopine”.

With N=C(N)NCCC[C@@H](C(=O)O)N1C(=O)CC[C@@H]1C(=O)O [Pyronopaline, N-(4-((aminoiminomethyl)amino)-1S-carboxybutyl)-2-pyrrolidone-5R-carboxylic acid] the “Doubling Time” value ([2]; Preinduced Innoculum) was 3.1 h, the “Doubling Time” value ([2]; Uninduced Innoculum) was 3.1 h and the “utilization as a source of carbon and nitrogen” value (“utilization as a source” for short) [2] was “metabolized”. The reverse reaction [3] was “No significant reverse reaction”, the “change of concentration in tumor extract” value [4] was “did not change” and the solubility (Solubility in H2O) was 34.5 mg/mL (≈ 121 mM).

With N=C(N)NCCC[C@H](N[C@@H](CCC(=O)O)C(=O)O)C(=O)O [Isonopaline] the “Doubling Time” value ([2]; Preinduced Innoculum) was “no growth”, the “Doubling Time” value ([2]; Uninduced Innoculum) was “no growth” and the “utilization as a source” value [2] was “completely ineffective”. For the same compound, the “oxidation catalyzed” value (octopine dehydrogenase [5]) was “not that of isonopaline”, the “time for completed conversion to the pyro-derivative” value ([6]; 60° C., pH 3.2) was “approximately 100 hours” and the cyclization [6] was “neither nopaline nor isonopaline is demonstrable”. For the same compound, the reaction rate constant [6] was 3.5e-08 s⁻¹, the “first order rate constant, formation of pyrrolidonecarboxylic acid derivative” value [6] was 0.35×10^-7 S^-1 and the “time to completion of conversion to the pyrrolidonecarboxylic acid derivative” value [6] was 30 min. It also gave a solubility (Solubility in H2O) of 21.3 mg/mL (≈ 70 mM).

In the case of N=C(N)NCCC[C@H](N[C@H](CCC(=O)O)C(=O)O)C(=O)O [Nopaline, N-(4-((aminoiminomethyl)amino-)-1S-carboxybutyl)-2R-2-pentanedioic acid], the “Doubling Time” value ([2]; Preinduced Innoculum) is reported as 2.8 h, the “Doubling Time” value ([2]; Uninduced Innoculum) is reported as 2.8 h and the “utilization as a source” value [2] is reported as “metabolized”. For the same compound, the “oxidation catalyzed” value (octopine dehydrogenase [5]) was “catalyzed the oxidation of nopaline”, the “relative rate of reaction of nopaline vs isonopaline” value ([6]; 22° C. and 100° C.) was “faster reaction” and the “time of conversion to the pyro-derivative” value ([6]; 60° C.) was 18 to 24 h. The “time for completed conversion to the pyro-derivative” value ([6]; 100° C., pH 0.0) was “approximately 1.0 hours”, the “time for quantitative conversion to the pyro-derivative” value ([6]; 100° C., pH 3.2) was “approximately 2 hours” and the “time of conversion to the pyro-derivative” value ([6]; 121° C.) was “approximately 30 minutes”. The cyclization [6] was “neither nopaline nor isonopaline is demonstrable”, the reaction rate constant [6] was 4.6e-07 s⁻¹ and the “first order rate constant, formation of pyrrolidonecarboxylic acid derivative” value [6] was 4.6×10^-7 S^-1. For the same compound, the “time to completion of conversion to the pyrrolidonecarboxylic acid derivative” value [6] was 30 min, the “conversion to the pyro-derivatives” value ([6]; pH above approximately 5.5, 48 hours at 100° C.) was “too slow to be readily measured” and the “change of concentration in tumor extract” value [4] was “did not change”. It also gave a solubility (Solubility in H2O) of 6.3 mg/mL (≈ 20.7 mM).

In the case of C[C@@H](N[C@@H](CCCNC(=N)N)C(=O)O)C(=O)O [D-octopine], the “oxidation catalyzed” value (octopine dehydrogenase [1]) is listed as “catalyzes the oxidation of D-octopine”.

From patent US5081289A, “Synthesis and isolation of nopaline and its analogues” (The University of Alabama in Birmingham, priority 1989, dated 1992)
